Measured values taken from patent US20210379153A1, “COMBINATION THERAPIES COMPRISING SIRP ALPHA-BASED CHIMERIC PROTEINS” (Shattuck Labs, Inc., priority 2018, published 2021).
Several values for one entry are separate records, joined by “and”; a condition that tells them apart may be missing. Equal entries are not always repeated. Values belong to the substance of their own block, whether it stands above or below them.

Columns and labels:
tumors [1] = assay: In vivo tumor model, SIRPα-Fc-OX40L with checkpoint antibodies (Example 14); parameters: species or system mice; conditions: chimeric protein alone
Protocol: The in vivo ability of combinations of the SIRPα-Fc-OX40L chimeric protein with anti-CTLA-4 antibodies or the SIRPα-Fc-OX40L chimeric protein with anti-PD-1 antibodies to target and treat tumors was determined.

[2] = molecular target: T1, recombinant mouse CD47 (mouse) (UniProt Q61735); assay: dual ELISA: coat mCD47-Fc, detect mCD40-His, tertiary anti-his-HRP, OD450
T1 sequence (looked up): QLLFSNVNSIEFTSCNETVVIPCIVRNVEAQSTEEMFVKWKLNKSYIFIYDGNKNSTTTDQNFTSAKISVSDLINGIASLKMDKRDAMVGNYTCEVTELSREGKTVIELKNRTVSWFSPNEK

[3] = system: IRF-inducible ISG reporter in RAW264.7 cells; assay: RAW264.7-ISG interferon reporter cells co-cultured with A20 lymphoma cells; format: cell-based, mouse; conditions: monotherapy; 50 mg/mL proteins, 1 mg/mL anti-mCD20; 24 hours
Protocol: FIG. 8D: Macrophage:Toledo lymphoma co-cultures were harvested 2 hours into phagocytosis assays in the presence of rituximab ([…]), SIRPα-Fc-CD40L ([…]), or the combination of both agents. Macrophages were isolated by CD11b+ FACS, RNA was prepared, cDNA synthesized, and gene expression (IFNa1, IFNb1, CD80, and CD86) assessed by qRT-PCR. Fold change was calculated using DDCT and values obtained from the housekeeping gene ACTB, and the corresponding values from untreated samples. […] After 2 hours, co-cultures were isolated from tissue culture vessels and were stained with a fluorescently conjugated CD11b antibody to discriminate macrophages. Cells were then assessed by flow cytometry for the co-localization of fluorescent signal from both cells types. […] After 24-hours type I interferon induced luminescence was assessed using a luminometer. The maximum luminescence (RLU) from each experiment was set to 1, and all other samples were normalized accordingly. […]
Additionally, a macrophage reporter system was used to detect activation. […] After 24 hours, culture supernatant was collected and assessed for luciferase activity, which would indicate activation of a type I interferon response in the RAW-ISG reporter cells. […]

tumors [4] = assay: In vivo tumor model, SIRPα-Fc-LIGHT with anti-PD-1 (Example 15); parameters: species or system mice; conditions: combination with anti-PD-1 antibody
Protocol: The in vivo ability of combinations of the SIRPα-Fc-LIGHT chimeric protein with anti-PD-1 antibodies to target and treat tumors was determined. (FIG. 26A and FIG. 26B) FIG. 26C and FIG. 26D include data relevant to the graphs of FIG. 26A and FIG. 26B.

[5] = system: CD8+ T cell-depleted PBMC; assay: IL-2 ELISpot of CD8+ T cell-depleted PBMC; format: cell-based, human; conditions: day 8 of the culture
Protocol: (§1) Here, proliferation was assessed via [^3H]-Thymidine incorporation on days 5, 6, and 7. The order of samples (in triplicate) along the X-axis is media only, KLH, Exenatide, 0.3 nm SIRPα-Fc-CD40L, 3 nm SIRPα-Fc-CD40L, 30 nm SIRPα-Fc-CD40L and 300 nm SIRPα-Fc-CD40L. […] Here, proliferation was assessed by ELISpot. The order of samples (in triplicate) along the X-axis is media only, KLH, Exenatide, 0.3 nm SIRPα-Fc-CD40L, 3 nm SIRPα-Fc-CD40L, 30 nm SIRPα-Fc-CD40L and 300 nm SIRPα-Fc-CD40L.
(§2) The observation that SIRPα-Fc-CD40L stimulated CD40 signaling prompted investigation of other cellular functions that depend upon CD40 signaling. CD8+ T cell-depleted PBMC were isolated from a total of 33-50 different human donors and cultured in the presence of a dose-titration of hSIRPα-Fc-CD40L (FIG. 6A and FIG. 6B).

FcγR-IIb = molecular target: T2, FcγR-IIb (Homo sapiens, UniProt P31994); assay: SPR binding to Fc receptor FcγR-IIb
T2 sequence (P31994 43-310): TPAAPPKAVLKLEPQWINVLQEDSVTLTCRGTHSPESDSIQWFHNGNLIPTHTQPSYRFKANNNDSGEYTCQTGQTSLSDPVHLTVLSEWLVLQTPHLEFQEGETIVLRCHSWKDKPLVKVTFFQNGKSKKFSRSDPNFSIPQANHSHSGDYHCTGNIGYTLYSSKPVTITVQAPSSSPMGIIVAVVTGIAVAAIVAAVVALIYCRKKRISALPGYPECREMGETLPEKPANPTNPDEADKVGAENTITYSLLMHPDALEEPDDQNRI
Source text: (§3) The extracellular domain (ECD) of SIRPα and the ECD of CD40L were fused via an antibody Fc domain to generate SIRPαECD-Fc-CD40LECD chimeric proteins. When human proteins were used, the chimeric protein is referred to as hSIRPα-Fc-CD40L; when murine proteins were used, the chimeric protein is referred to as and mSIRPα-Fc-CD40L. Generically, the chimeric protein is referred to as SIRPα-Fc-CD40L. […] Mammalian cells were then transfected with the hSIRPα-Fc-CD40L expressing construct, and the secreted protein was purified from conditioned media by affinity chromatography. The purified protein was then analyzed for the presence of each individual domain by Western blotting using anti-SIRPα, anti-Fc, and anti-CD40L antibodies (FIG. 3A, bottom). […] The reduced and deglycosylated form of the protein migrated at the predicted monomeric molecular weight of 90.1 kDa. […] Next, binding affinities for SIRPα-Fc-CD40L to recombinant CD47, CD40, or Fc receptors were evaluated by surface plasmon resonance (SPR). […] Finally, to confirm that SIRPα-Fc-CD40L interacted with native CD47 and CD40 in a similar manner to recombinant CD47 and CD40, CHOK1-hCD47 and CHOK1-hCD40 reporter cell lines were developed (FIG. 3F). […] A functional ELISA evaluated whether SIRPα-Fc-CD40L could outcompete a commercially available single-sided SIRPα-Fc control for binding to recombinant CD47 (FIG. 3H).

FcγR-IIIb = FcγR-IIIb (Homo sapiens, UniProt O75015); assay: SPR binding to Fc receptor FcγR-IIIb
Sequence of FcγR-IIIb (O75015 17-200): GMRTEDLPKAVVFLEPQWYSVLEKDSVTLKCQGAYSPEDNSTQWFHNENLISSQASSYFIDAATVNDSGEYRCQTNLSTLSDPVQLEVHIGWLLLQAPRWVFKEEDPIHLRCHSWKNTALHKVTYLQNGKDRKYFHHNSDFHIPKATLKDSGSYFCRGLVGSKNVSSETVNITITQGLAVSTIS
Source text: as §3

[6] = system: CD8+ T cell-depleted PBMC; assay: Proliferation of CD8+ T cell-depleted PBMC ([3H]-thymidine); format: cell-based, human; conditions: 0.3, 3, 30, or 300 nM; 7-day culture; 33-50 donors
Protocol: as §1, §2

FcγR-Ia = FcγR-Ia (Homo sapiens, UniProt P12314); assay: SPR binding to Fc receptor FcγR-Ia
Sequence of FcγR-Ia (P12314 16-374): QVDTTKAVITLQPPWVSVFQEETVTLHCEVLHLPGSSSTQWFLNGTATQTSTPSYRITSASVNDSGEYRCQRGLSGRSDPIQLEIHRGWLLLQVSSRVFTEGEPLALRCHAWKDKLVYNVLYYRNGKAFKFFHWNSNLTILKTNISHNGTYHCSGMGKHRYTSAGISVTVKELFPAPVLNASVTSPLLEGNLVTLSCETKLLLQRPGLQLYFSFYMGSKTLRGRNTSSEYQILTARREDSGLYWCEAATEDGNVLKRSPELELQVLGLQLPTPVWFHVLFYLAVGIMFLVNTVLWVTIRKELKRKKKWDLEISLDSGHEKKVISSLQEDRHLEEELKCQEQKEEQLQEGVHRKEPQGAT
Source text: Scale is shown and yellow arrows correspond with each identified monomer. A schematic of the hexamer species is shown to the right, depicting dimerization of the Fc domain and trimerization of the CD40L domain. […] Recombinant hSIRPα-Fc, hCD40L-Fc, and hIgG1 were used as positive controls. […] In both panels, the CHOK1 Parental is on the left and the CHOK1/hCD47 is on the right. […] For both graphs, the CHOK1 Parental is on the bottom. […] In this figure, the control is the top curve, the SIRPα-Fc-CD40L is the middle curve, and the anti-CD47 is the bottom curve.
The extracellular domain (ECD) of SIRPα and the ECD of CD40L were fused via an antibody Fc domain to generate SIRPαECD-Fc-CD40LECD chimeric proteins. When human proteins were used, the chimeric protein is referred to as hSIRPα-Fc-CD40L; when murine proteins were used, the chimeric protein is referred to as and mSIRPα-Fc-CD40L. […] The purified protein was then analyzed for the presence of each individual domain by Western blotting using anti-SIRPα, anti-Fc, and anti-CD40L antibodies (FIG. 3A, bottom). […] Next, binding affinities for SIRPα-Fc-CD40L to recombinant CD47, CD40, or Fc receptors were evaluated by surface plasmon resonance (SPR). […] A functional ELISA evaluated whether SIRPα-Fc-CD40L could outcompete a commercially available single-sided SIRPα-Fc control for binding to recombinant CD47 (FIG. 3H).

[7] = Repeat-dose safety and activity study in cynomolgus macaques; format: in vivo; conditions: IV infusion weekly for five weeks; 0.1, 1, 10 and 40 mg/kg
Protocol: FIG. 21 is a graph showing cynomolgus macaques that were treated with vehicle, or 0.1, 1, 10, and 40 mg/kg of SIRPα-Fc-CD40L. Blood chemistry analysis assessed peripheral erythrocyte counts, hemoglobin levels, and hematocrit. In addition, the fold-change in lymphocyte count from pre-dose to 24 hours post-dose is shown.
The experiments of this example tested the safety and activity of the human SIRPα-Fc-CD40L chimeric protein following repeat doses in cynomolgus macaques. Briefly, naïve cynomolgus macaques were administered the human SIRPα-Fc-CD40L chimeric protein by intravenous infusion every week, for five consecutive weeks, at doses of 0.1, 1, 10 and 40 mg/kg. Standard hematology and clinical chemistry parameters were collected before and after each dose.
Receptor occupancy was evaluated on circulating CD40+ lymphocytes.

[8] = system: IFNα1, IFNβ1, CD80 and CD86 expression in macrophages; assay: qRT-PCR of macrophages sorted from macrophage:Toledo lymphoma co-cultures; format: cell-based, human; parameters: macrophage activation and type I interferon gene expression: dose or concentration left out as unconfirmed; conditions: monotherapy; 2 hours
Protocol: FIG. 8D: Macrophage:Toledo lymphoma co-cultures were harvested 2 hours into phagocytosis assays in the presence of rituximab ([…]), SIRPα-Fc-CD40L ([…]), or the combination of both agents. Macrophages were isolated by CD11b+ FACS, RNA was prepared, cDNA synthesized, and gene expression (IFNa1, IFNb1, CD80, and CD86) assessed by qRT-PCR. Fold change was calculated using DDCT and values obtained from the housekeeping gene ACTB, and the corresponding values from untreated samples. […] After 2 hours, co-cultures were isolated from tissue culture vessels and were stained with a fluorescently conjugated CD11b antibody to discriminate macrophages. Cells were then assessed by flow cytometry for the co-localization of fluorescent signal from both cells types. Identical assays were set up where macrophages were pre-incubated for 1 hour with 20 μg/mL of a commercially available Fc block cocktail or with 20 μg/mL of a CD40 blocking antibody or with 5 μg/mL of a calreticulin blocking peptide. FIG. 8G: RAW 264.7-Lucia ISG cells were cultured with A20 lymphoma cells in the presence of […] of mSIRPα-Fc-CD40L, recombinant Fc-mCD40L, mSIRPα-Fc, or their combination, 1 mg/mL anti-mCD20, or the combination of mSIRPα-Fc-CD40L and anti-mCD20. After 24-hours type I interferon induced luminescence was assessed using a luminometer. The maximum luminescence (RLU) from each experiment was set to 1, and all other samples were normalized accordingly. Values from repeat experiments are shown.
RNA was prepared from macrophages isolated using fluorescent activated cell sorting (FACS) from SIRPα-Fc-CD40L/Rituximab treated co-cultures macrophages and Toledo lymphoma cells. The RNA was assessed by qRT-PCR for expression of IFNα1 and IFNβ1, and the macrophage activation markers CD80 and CD86.

Substance: SIRPα(CD172a)-Fc-OX40L: ECD of SIRPα and ECD of OX40L fused via an antibody Fc domain (SEQ ID NO: 61)
survival (tumors [1]): any survivors by the sixteenth day
tumor size (tumors [1]): effective in reducing tumor size

EC50 [2]: 7.37 nM and 8.73 nM
Substance: mSIRPα-Fc-CD40L chimeric protein (murine SIRPα ECD - Fc - murine CD40L ECD) (from UniProt P97797 32-373; P27548 47-260) (Fc fusion)

Substance: SIRPα-Fc: recombinant single-sided SIRPα-Fc protein [reference compound]
interferon gene-driven luciferase activity (type I IFN response) [3]: no significant signal

Substance: SIRPα(CD172a)-Fc-LIGHT: ECD of SIRPα, hinge-CH2-CH3 Fc linker and ECD of LIGHT (SEQ ID NO: 63)
survival (tumors [4]): any survivors by the twenty-fifth day
tumor size (tumors [4]): most effective in reducing tumor size
rejection of secondary tumor challenge (tumors [4]; no additional treatment): 66.6%

binding (FcγR-IIb): undetectable binding
binding (FcγR-IIIb): undetectable binding
binding (FcγR-Ia): undetectable binding
Substance: hSIRPα-Fc-CD40L: chimeric protein: ECD of human SIRPα fused via an antibody Fc domain to ECD of human CD40L (SEQ ID NO: 60)
number of IL-2-secreting PBMC [5]: dose-dependent increase
proliferation of human PBMC [6]: dose-dependent proliferation
hemolysis [7]: no evidence
thrombocytopenia [7]: no evidence

Substance: rituximab: anti-CD20 antibody [reference compound]
macrophage activation and type I interferon gene expression [8]: induced macrophage activation and the expression of type I interferon genes
